What was measured:
[1] = biological target: human CSNK1D tagged with nanoluciferase (Homo sapiens (Human), UniProt P48730); assay: Whole Cell nBRET CSNK1D Binding Assay; settings: living CHO cells stably expressing human CSNK1D-nanoluciferase; NanoBret tracer 130 nM; 2 hours 37° C.; read-out: CSNK1D BRET IC50
Description: This cellular binding assay uses a bioluminescence resonance energy transfer to measure human CSNK1D binding activity in living Chinese Hamster Ovary (CHO) cells that are stably expressing human CSNK1D tagged with nanoluciferase. The cells were grown to confluency in growth media (DMEM:F12, 50 u/mLPen/Strep, […] glutamine, and 0.6 mg/mL G418) in 10 cm^2 dishes. Cells were seeded onto white, opaque 384-well plates (Corning, cat #3704) at a density of 8,000 cells/well in serum-free OptiMEM and left to incubated overnight at 37° C., […]. The next day, test compounds were added in a dose response to the plate followed by a NanoBret tracer (130 nM). The plate is mixed on an orbital shaker for 30 seconds, then placed in a 37° C. incubator for 2 hours. NanoBret Nano-Glo Substrate solution (20 μL) is added to all wells and incubated for 3 minutes at room temperature. Donor (450 nm) and acceptor (630 nm) emissions are then measured within 10 minutes using a ClarioStar plate reader. The data is used to calculate millibret units, defined as (E630/E450)*1000. Bret emissions are then graphed against the log of compound concentrations and these graphs are used to determine the IC50 of each compound.

[2] = biological target: human recombinant GST cleaved CSNK1D (Homo sapiens (Human), UniProt P48730); assay: Purified enzyme assay (ADP-Glo Kinase Assay); format: biochemical; settings: 2 nM CSNK1D, peptide substrate 150 μM, ATP 20 μM, 45 minutes room temperature
human recombinant GST cleaved CSNK1D, sequence (P48730 whole entry): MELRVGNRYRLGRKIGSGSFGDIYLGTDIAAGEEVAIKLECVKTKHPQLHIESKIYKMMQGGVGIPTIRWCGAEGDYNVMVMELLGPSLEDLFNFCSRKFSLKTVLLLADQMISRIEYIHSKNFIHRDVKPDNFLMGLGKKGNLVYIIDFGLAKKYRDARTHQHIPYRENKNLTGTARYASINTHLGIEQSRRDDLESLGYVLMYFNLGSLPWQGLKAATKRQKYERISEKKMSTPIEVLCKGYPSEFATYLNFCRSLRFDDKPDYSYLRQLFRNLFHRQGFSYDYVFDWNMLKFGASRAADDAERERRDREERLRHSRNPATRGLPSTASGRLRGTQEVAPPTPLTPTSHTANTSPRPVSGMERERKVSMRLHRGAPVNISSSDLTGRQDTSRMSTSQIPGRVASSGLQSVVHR
Description: In this assay, CSNK1D phosphorylates a substrate peptide PLSRTL-pS-VASLPGL in the presence of ATP. […] This assay monitors CSNK1D kinase activity by measuring the amount of ADP produced in the assay. A substrate mix is prepared by diluting peptide substrate (final concentration 150 μM) with ATP (final concentration 20 μM) in assay buffer (50 mM Tris/HCl pH 7.4+10 mM MgCl2+1 mM DTT+0.1% BSA). The substrate mix is added to each well of a low volume, 384-well, white opaque plate. Test compounds were diluted in HBSS and added in a dose-response to the plate. To start the reaction, 2 nM of constitutively active human recombinant GST cleaved CSNK1D (University of Dundee, clone DU 19064, stored at 0.28 mg/mL in 50 mM Tris/HCl pH 7.5, 150 mM NaCl, 270 mM Sucrose, 0.1 mM EGTA, 0.1% 2-mercaptoethanol, 0.02% Brij-35.1 mM benzamidine, 0.2 mM PMSF) was added to each well and the plate centrifuged for 5 minutes at 1500 rpm. The total volume of each reaction is 5 ul (2 μL of substrate mix, 1 μL of diluted compounds, and 2 μL of human recombinant CSNK1D). The plates are incubated for 45 minutes at room temperature.
ADP was quantified using the ADP-Glo™ Kinase Assay. ADP-Glo Reagent (5 μL) was added to each well. After a 1 hour incubation at room temperature, Kinase Detection Reagent (10 μL) was added to each well and incubated for 30 minutes. Luminescence was measured on the Perkin Elmer Wallac EnVision 2104 Multi-label Reader. The raw data from the Envision is used to calculate percent activity.

human CSNK1D tagged with nanoluciferase, sequence (P48730 whole entry): as above

| SMILES | IC50 [1] | AC50 [2] |
| --- | --- | --- |
| Cn1cc(-c2ccnc3c2CNC3)c(-c2ccc(F)cn2)n1 [Example 117, 4-(3-(5-Fluoropyridin-2-yl)-1-methyl-1H-pyrazol-4-yl)-6,7-dihydro-5H-pyrrolo[3,4-b]pyridine] | > 10000 nM | 101 nM |
| Fc1ccc(-c2nn(C3COC3)cc2-c2ccnc3[nH]ccc23)nc1 [Example 72, 4-[3-(5-Fluoro-2-pyridyl)-1-(oxetan-3-yl)pyrazol-4-yl]-1H-pyrrolo[2,3-b]pyridine] | 136 nM | 8 nM |
| Cn1cc(-c2ccnc3[nH]ccc23)c(-c2ccc(OC(F)(F)F)cn2)n1 [Example 36, 4-[1-Methyl-3-[5-(trifluoromethoxy)-2-pyridyl]pyrazol-4-yl]-1H-pyrrolo[2,3-b]pyridine] | > 10000 nM | 6480 nM |
| Cn1cc(-c2ccnc3[nH]ncc23)c(-c2ccncc2F)n1 [Example 19, 4-[3-(3-Fluoro-4-pyridyl)-1-methyl-pyrazol-4-yl]-1H-pyrazolo[3,4-b]pyridine] | 797 nM | 92 nM |
| Cc1cc(-c2cn(C)nc2-c2ccc(Cl)cn2)c2cn[nH]c2n1 [Example 26, 4-(3-(5-Chloropyridin-2-yl)-1-methyl-1H-pyrazol-4-yl)-6-methyl-1H-pyrazolo[3,4-b]pyridine] | 2090 nM | 58 nM |
| Cn1cc(-c2ccnc3[nH]ccc23)c(-c2ccc(Cl)cn2)n1 [Example 24, 4-[3-(5-Chloro-2-pyridyl)-1-methyl-pyrazol-4-yl]-1H-pyrrolo[2,3-b]pyridine] | 251 nM | 34 nM |
| Cc1cccc(-c2nn(C)cc2-c2cc(C)nc3[nH]ncc23)n1 [Example 30, 6-Methyl-4-(1-methyl-3-(6-methylpyridin-2-yl)-1H-pyrazol-4-yl)-1H-pyrazolo[3,4-b]pyridine] | 388 nM | 24 nM |
| CCn1cc(-c2cc(C)nc3[nH]ncc23)c(-c2ccc(F)cn2)n1 [Example 57, 4-(1-Ethyl-3-(5-fluoropyridin-2-yl)-1H-pyrazol-4-yl)-6-methyl-1H-pyrazolo[3,4-b]pyridine] | 219 nM | 14 nM |
| Cn1cc(-c2ccnc3[nH]ccc23)c(-c2ncc(F)cn2)n1 [Example 43, 4-[3-(5-Fluoropyrimidin-2-yl)-1-methyl-pyrazol-4-yl]-1H-pyrrolo[2,3-b]pyridine] | 268 nM | 31 nM |
| Cn1cc(-c2ccnc3[nH]ccc23)c(-c2cccnn2)n1 [Example 48, 4-(1-Methyl-3-pyridazin-3-yl-pyrazol-4-yl)-1H-pyrrolo[2,3-b]pyridine] | 3470 nM | 39 nM |
| Cn1cc(-c2ccnc3[nH]ccc23)c(-c2cncn2C)n1 [Example 10, 4-(1-Methyl-3-(1-methyl-1H-imidazol-5-yl)-1H-pyrazol-4-yl)-1H-pyrrolo[2,3-b]pyridine] | > 10000 nM | 2280 nM |
| Cn1cc(-c2ccnc3[nH]ccc23)c(-c2cc(F)ccn2)n1 [Example 27, 4-[3-(4-Fluoro-2-pyridyl)-1-methyl-pyrazol-4-yl]-1H-pyrrolo[2,3-b]pyridine] | 178 nM | 4 nM |
| Cc1cc(-c2cn(C)nc2-c2ccc(F)c(C)n2)c2cn[nH]c2n1 [Example 40, 4-(3-(5-Fluoro-6-methylpyridin-2-yl)-1-methyl-1H-pyrazol-4-yl)-6-methyl-1H-pyrazolo[3,4-b]pyridine] | 288 nM | 19 nM |
| Cn1cc(-c2ccnc3[nH]ccc23)c(-c2nccs2)n1 [Example 16, 2-(1-Methyl-4-(1H-pyrrolo[2,3-b]pyridin-4-yl)-1H-pyrazol-3-yl)thiazole] | 319 nM | 15 nM |
| Cn1cc(-c2ccnc3c2CC(=O)N3)c(-c2ccc(F)cn2)n1 [Example 3, 4-(3-(5-Fluoropyridin-2-yl)-1-methyl-1H-pyrazol-4-yl)-1,3-dihydro-2H-pyrrolo[2,3-b]pyridin-2-one] | 1500 nM | 58 nM |
| Cn1cc(-c2c(F)cnc3[nH]ccc23)c(-c2ccc(F)cn2)n1 [Example 78, 5-Fluoro-4-[3-(5-fluoro-2-pyridyl)-1-methyl-pyrazol-4-yl]-1H-pyrrolo[2,3-b]pyridine] | 50 nM | 4 nM |

Second part, the compound after the results:

| IC50 [1] | AC50 [2] | SMILES |
| --- | --- | --- |
| 94 nM | 4 nM | Cn1cc(-c2c(C(F)(F)F)cnc3[nH]ccc23)c(-c2ccc(F)cn2)n1 [Example 87, 4-[3-(5-Fluoro-2-pyridyl)-1-methyl-pyrazol-4-yl]-5-(trifluoromethyl)-1H-pyrrolo[2,3-b]pyridine] |
| > 10000 nM | 124 nM | Cn1cc(-c2ccnc3cc(C#N)ccc23)c(-c2ccc(F)cn2)n1 [Example 149, 4-[3-(5-Fluoro-2-pyridyl)-1-methyl-pyrazol-4-yl]quinoline-7-carbonitrile] |
| > 10000 nM | 7030 nM | Cc1ccnc2c(-c3cn(C)nc3-c3ccc(F)cn3)ccnc12 [Example 133, 4-[3-(5-Fluoro-2-pyridyl)-1-methyl-pyrazol-4-yl]-8-methyl-1,5-naphthyridine] |
| 1600 nM | 43 nM | CCn1ncc2cc(-c3cn(C)nc3-c3ccc(F)cn3)cnc21 [Example 121, 1-Ethyl-5-[3-(5-fluoro-2-pyridyl)-1-methyl-pyrazol-4-yl]pyrazolo[3,4-b]pyridine] |
| > 10000 nM | 1170 nM | Cc1cc(-c2cn(C)nc2-c2c(C)cncc2F)c2cn[nH]c2n1 [Example 140, 4-[3-(3-Fluoro-5-methyl-4-pyridyl)-1-methyl-pyrazol-4-yl]-6-methyl-1H-pyrazolo[3,4-b]pyridine] |
| > 10000 nM | 15 nM | CC(C)c1n[nH]c2nccc(-c3cn(C)nc3-c3ccc(F)cn3)c12 [Example 122, 4-[3-(5-Fluoro-2-pyridyl)-1-methyl-pyrazol-4-yl]-3-isopropyl-1H-pyrazolo[3,4-b]pyridine] |
| 238 nM | 11 nM | Cc1cc(-c2cn(C)nc2-c2ccc(F)cn2)c2cn[nH]c2n1 [Example 99, 4-(3-(5-Fluoropyridin-2-yl)-1-methyl-1H-pyrazol-4-yl)-6-methyl-1H-pyrazolo[3,4-b]pyridine] |
| 2020 nM | 44 nM | COc1ncc(-c2nn(C)cc2-c2cc(C)nc3[nH]ncc23)cc1C [Example 141, 4-[3-(6-Methoxy-5-methyl-3-pyridyl)-1-methyl-pyrazol-4-yl]-6-methyl-1H-pyrazolo[3,4-b]pyridine] |
| > 10000 nM | 5360 nM | COc1ccc2c(-c3cn(C)nc3-c3ccc(F)cn3)cc(C)nc2c1 [Example 110, 4-[3-(5-Fluoro-2-pyridyl)-1-methyl-pyrazol-4-yl]-7-methoxy-2-methyl-quinoline] |
| 382 nM | 28 nM | COc1ncc(-c2nn(C)cc2-c2cc(C)nc3[nH]ncc23)cc1Cl [Example 142, 4-[3-(5-Chloro-6-methoxy-3-pyridyl)-1-methyl-pyrazol-4-yl]-6-methyl-1H-pyrazolo[3,4-b]pyridine] |
| > 10000 nM | 1540 nM | Cc1cc(-c2nn(C)cc2-c2cc(C)nc3[nH]ncc23)cnn1 [Example 143, 6-Methyl-4-[1-methyl-3-(6-methylpyridazin-4-yl)pyrazol-4-yl]-1H-pyrazolo[3,4-b]pyridine] |
| 41 nM | 1 nM | Cc1cc(-c2cn(C)nc2-c2ccc(F)cn2)c2cc[nH]c2n1 [Example 80, 4-[3-(5-Fluoro-2-pyridyl)-1-methyl-pyrazol-4-yl]-6-methyl-1H-pyrrolo[2,3-b]pyridine] |
| 564 nM | 39 nM | Cn1cc(-c2ccnc3cc(F)ccc23)c(-c2ccc(F)cn2)n1 [Example 106, 7-Fluoro-4-[3-(5-fluoro-2-pyridyl)-1-methyl-pyrazol-4-yl]quinoline] |
| 653 nM | 19 nM | Cn1cc(-c2c(C3COC3)cnc3[nH]ccc23)c(-c2ccc(F)cn2)n1 [Example 91, 4-(3-(5-Fluoropyridin-2-yl)-1-methyl-1H-pyrazol-4-yl)-5-(oxetan-3-yl)-1H-pyrrolo[2,3-b]pyridine] |
